The nature of test [1]: Antiproliferative activity against human A875 cells assessed as inhibition of cell growth incubated for 24 hrs by MTT reagent based microplate reader assay. As to conditions: A875, 24 h. Format: functional.
The nature of test [2]: Antiproliferative activity against human A875 cells assessed as inhibition of cell growth incubated for 24 hrs by MTT reagent based ELISA. Format: functional. As to conditions: A875, 24 h.
The subject of test [3] is MCF7. The experiment in a line: Cytotoxicity against human MCF7 cells incubated for 72 hrs. As to conditions: MCF7, 72 h. Format: functional, cell-based.
Test [4] has as its system MCF7. The experiment in a line: Antiproliferative activity against human MCF7 cells assessed as inhibition of cell growth incubated for 72 hrs by MTS assay. Format: functional, cell-based. As to conditions: MCF7, 72 h.
The test system of test [5] is KATO III stomach cancer cell line. The experiment in a line: Antiproliferative activity against human KATO III stomach cancer cell line assessed as inhibition of cell growth incubated for 72 hrs by MTS assay. The test is classed as functional, cell-based.
Test [6] deals with HT-29. Description: Cytotoxicity against human HT-29 cells assessed as inhibition of cell growth incubated for 72 hrs by sulforhodamine B assay. The test is classed as functional, cell-based. As to conditions: HT-29, 72 h.
Test [7] relates to MCF7. Description: Cytotoxicity against human MCF7 cells assessed as inhibition of cell growth incubated for 72 hrs by sulforhodamine B assay. Format: functional, cell-based. The following applies: MCF7, 72 h.
For test [8], the system named is PC-3. Description: Cytotoxicity against human PC-3 cells assessed as inhibition of cell growth incubated for 72 hrs by sulforhodamine B assay. The test is classed as functional, cell-based. The following applies: PC-3, 72 h.
The test system of a further test is DU-145. Description: Antiproliferative activity against human DU-145 cells assessed as inhibition of cell growth incubated for 48 hrs by MTT reagent based microplate reader assay. The test is classed as functional. The following applies: DU-145, 48 h.
The subject of test [9] is MCF7. Description: Antiproliferative activity against human MCF7 cells assessed as inhibition of cell growth incubated for 48 hrs by MTT reagent based microplate reader assay. The test is classed as functional. As to conditions: MCF7, 48 h.
A further test concerns PANC-1. Description: Antiproliferative activity against human PANC-1 cells assessed as inhibition of cell growth incubated for 48 hrs by MTT reagent based microplate reader assay. The following applies: PANC-1, 48 h. Format: functional.
Test [10] concerns A549. Description: Antiproliferative activity against human A549 cells assessed as inhibition of cell growth incubated for 48 hrs by MTT reagent based microplate reader assay. The test is classed as functional. The following applies: A549, 48 h.
The subject of a further test is HeLa. The experiment in a line: Antiproliferative activity against human HeLa cells assessed as inhibition of cell growth incubated for 48 hrs by MTT reagent based microplate reader assay. The test is classed as functional.
The subject of test [11] is PC-3. The experiment in a line: Antiproliferative activity against human PC-3 cells assessed as inhibition of cell growth incubated for 48 hrs by MTT reagent based microplate reader assay. Format: functional. The following applies: PC-3, 48 h.
The subject of test [12] is HCT-116. Description: Antiproliferative activity against human HCT-116 cells assessed as inhibition of cell growth incubated for 48 hrs by MTT reagent based microplate reader assay. The following applies: HCT-116, 48 h. Format: functional.
Test [13] relates to HepG2. The experiment in a line: Antiproliferative activity against human HepG2 cells assessed as inhibition of cell growth incubated for 48 hrs by MTT reagent based microplate reader assay. Format: functional. The following applies: HepG2, 48 h.
Test [14] has as its system HT-29. Description: Antiproliferative activity against human HT-29 cells assessed as inhibition of cell growth incubated for 48 hrs by MTT reagent based microplate reader assay. Format: functional. As to conditions: HT-29, 48 h.
Test [15] concerns A549. The experiment in a line: Antiproliferative activity against human A549 cells assessed as reduction in cell growth incubated for 48 hrs by MTT reagent based microplate reader assay. Format: functional. The following applies: A549, 48 h.
In a further test the test system is SK-OV-3. Description: Antiproliferative activity against human SK-OV-3 cells assessed as reduction in cell growth incubated for 48 hrs by MTT reagent based microplate reader assay. Format: functional. The following applies: SK-OV-3, 48 h.
For test [16], the system named is MCF7. Description: Antiproliferative activity against human MCF7 cells assessed as reduction in cell growth incubated for 48 hrs by MTT reagent based microplate reader assay. The test is classed as functional. The following applies: MCF7, 48 h.
In test [17] the test system is HepG2. The experiment in a line: Antiproliferative activity against human HepG2 cells assessed as reduction in cell growth incubated for 48 hrs by MTT reagent based microplate reader assay. The test is classed as functional. The following applies: HepG2, 48 h.
A further test relates to LNCaP. Description: Antiproliferative activity against human LNCaP cells assessed as reduction in cell growth incubated for 48 hrs by MTT reagent based microplate reader assay. The test is classed as functional.
Test [18] has as its system HCT-116. The experiment in a line: Cytotoxicity against human HCT-116 cells incubated for 72 hrs by MTT assay. As to conditions: HCT-116, 72 h. Format: functional, cell-based.
In the next test the test system is MDA-MB-435. Description: Cytotoxicity against human MDA-MB-435 cells incubated for 72 hrs by MTT assay. The test is classed as functional, cell-based. As to conditions: MDA-MB-435, 72 h.
The subject of test [19] is A549. Description: Cytotoxicity against human A549 cells incubated for 72 hrs by MTT assay. The test is classed as functional, cell-based. The following applies: A549, 72 h.
Test [20] can be described thus: Antiproliferative activity against human CAL-78 cells assessed as inhibition of cell growth incubated for 24 hrs by CellTiter-Glo luminescent assay. The test is classed as functional, cell-based. The following applies: CAL-78, 24 h.
In a further test the test system is SW1353. Description: Antiproliferative activity against human SW1353 cells assessed as inhibition of cell growth incubated for 24 hrs by CellTiter-Glo luminescent assay. Format: functional, cell-based. The following applies: SW1353, 24 h.
Test [21] has as its system A549. The experiment in a line: Cytotoxicity against human A549 cells incubated for 72 hrs by MTT reagent based spectrophotometric analysis. The test is classed as functional, cell-based. The following applies: A549, 72 h.
The test system of the next test is HL-60. The experiment in a line: Cytotoxicity against human HL-60 cells incubated for 72 hrs by MTT reagent based spectrophotometric analysis. The following applies: HL-60, 72 h. Format: functional, cell-based.
The subject of another test is A2780. Description: Cytotoxicity against human A2780 cells incubated for 72 hrs by MTT reagent based spectrophotometric analysis. The test is classed as functional, cell-based. The following applies: A2780, 72 h.
Test [22] has as its system PC-3. Description: Cytotoxicity against human PC-3 cells incubated for 72 hrs by MTT reagent based spectrophotometric analysis. The test is classed as functional, cell-based. As to conditions: PC-3, 72 h.
Test [23] is described as follows: Antiproliferative activity against human YCC-6 cells assessed as inhibition of cell growth incubated for 24 hrs by MTT reagent based microplate reader assay. Format: functional. The following applies: YCC-6, 24 h.
In a further test the test system is Hep 3B2. The experiment in a line: Antiproliferative activity against human Hep3B cells assessed as inhibition of cell growth incubated for 24 hrs by MTT reagent based microplate reader assay. Format: functional.
In a further test the test system is AGS. The experiment in a line: Antiproliferative activity against human AGS cells assessed as inhibition of cell growth incubated for 24 hrs by MTT reagent based microplate reader assay. The test is classed as functional.
Test [24] is described as follows: Antiproliferative activity against human YCC-1 cells assessed as inhibition of cell growth incubated for 24 hrs by MTT reagent based microplate reader assay. The following applies: YCC-1, 24 h. Format: functional.
The next test relates to MKN-28. Description: Antiproliferative activity against human MKN-28 cells assessed as inhibition of cell growth incubated for 24 hrs by MTT reagent based microplate reader assay. The test is classed as functional. The following applies: MKN-28, 24 h.
In test [25] the test system is HepG2. Description: Antiproliferative activity against human HepG2 cells assessed as inhibition of cell growth incubated for 24 hrs by MTT reagent based microplate reader assay. The test is classed as functional. As to conditions: HepG2, 24 h.
The next test deals with MKN-45. The experiment in a line: Antiproliferative activity against human MKN-45 cells assessed as inhibition of cell growth incubated for 24 hrs by MTT reagent based microplate reader assay. The test is classed as functional. As to conditions: MKN-45, 24 h.
For another test, the system named is Huh-7. Description: Antiproliferative activity against human Huh-7 cells assessed as inhibition of cell growth incubated for 24 hrs by MTT reagent based microplate reader assay. As to conditions: Huh-7, 24 h. Format: functional.
A short description of test [26]: Antiproliferative activity against human SNU-216 cells assessed as inhibition of cell growth incubated for 24 hrs by MTT reagent based microplate reader assay. The following applies: SNU-216, 24 h. Format: functional.
A short description of test [27]: Antiproliferative activity against human SNU-484 cells assessed as inhibition of cell growth incubated for 24 hrs by MTT reagent based microplate reader assay. Format: functional. As to conditions: SNU-484, 24 h.
A further test concerns NCI-N87. The experiment in a line: Antiproliferative activity against human NCI-N87 cells assessed as inhibition of cell growth incubated for 24 hrs by MTT reagent based microplate reader assay. The following applies: NCI-N87, 24 h. The test is classed as functional.
Test [28] in a line: Antiproliferative activity against human YCC-16 cells assessed as inhibition of cell growth incubated for 24 hrs by MTT reagent based microplate reader assay. The following applies: YCC-16, 24 h. Format: functional.

In the case of `CC(C)=CC[C@@H](OC(=O)CCc1cc2ccccc2[nH]1)C1=CC(=O)c2c(O)ccc(O)c2C1=O`, the IC50 in [1] came out at 5 nM.

Consider `CC(C)=CC[C@@H](OC(=O)Cc1ccc(Oc2ccccc2)cc1)C1=CC(=O)c2c(O)ccc(O)c2C1=O`, for which the IC50 in test [2] was determined as 1240 nM.

Molecule `CCC/C=C/C(=O)C1=C(OC)C(=O)c2cc(OC)c(OC)cc2C1=O` registered an IC50 with MCF7 [3] of 15000 nM.

For `CC(C)=CCCc1ccc2c(c1)C(=O)c1c(cnn1CCO)C2=O`, the IC50 was determined as 27500 nM with MCF7 [4] and 25500 nM in test [5].

With `CN(C)N1C=C2C[C@@H](O[Si](C)(C)C(C)(C)C)[C@@H]3OC(C)(C)O[C@@H]3[C@H]2C2=C1C(=O)c1c(O)cccc1C2=O`, the IC50 turned out to be 200 nM in the test with HT-29 [6], 16000 nM with MCF7 [7] and 700 nM in the test on PC-3 [8].

With `CCCCCCCC/C=C\CCCCCCCC(=O)Oc1cccc2c1C(=O)C=C(C)C2=O`, the IC50 came out at 8800 nM with DU-145; 7200 nM with MCF7 [9]; 16100 nM in the test on PANC-1; 15400 nM in the test on A549 [10]; 21000 nM in the test with HeLa; 10000 nM in the test with PC-3 [11]. In addition, the results for the IC50 in the test on HCT-116 [12], in the test with HepG2 [13] and in the test with HT-29 [14] were 6500 nM, 7400 nM and 2900 nM, respectively.

Take `CC1=C(C2CC(=O)N(C)C2=O)C(=O)c2c(O)cccc2C1=O` (stereo not drawn): the IC50 came out at 6110 nM in the test on A549 [15]; 12200 nM with SK-OV-3; 4910 nM in the test on MCF7 [16]; 7130 nM with HepG2 [17]; 3620 nM with LNCaP.

With `CC1(C)O[C@H]2[C@@H](O1)[C@@H](Cn1nnc3c1C(=O)c1cccc(O)c1C3=O)O[C@@H]1OC(C)(C)O[C@@H]12`, the IC50 in the test with HCT-116 [18] was determined as 520 nM; with MDA-MB-435, 290 nM; in the test with A549 [19], 990 nM.

Turning to `CC(C)=CC[C@@H](OC(=O)C1CC1)C1=CC(=O)c2c(O)ccc(O)c2C1=O`, the IC50 in test [20] came out at 2900 nM; with SW1353 it was 1200 nM.

Turning to `O=C1C=C(C(O)C[N+](=O)[O-])C(=O)c2c(O)ccc(O)c21` (stereo not drawn), the IC50 with A549 [21] came out at 1050 nM; with HL-60, 140 nM; in the test on A2780 it was 110 nM; in the test with PC-3 [22] it was 90 nM.

`COc1ccc(OC)c2c1C(=O)C=C(Sc1ccc3ccccc3c1)C2=O`: the IC50 in test [23] is 800 nM; with Hep 3B2 it was 900 nM; in the test on AGS, 420 nM; in test [24], 1300 nM; with MKN-28 it was 1200 nM; in the test on HepG2 [25], 870 nM. Moreover, the IC50 in the test on MKN-45 came out at 820 nM; in the test on Huh-7, 2840 nM; in test [26] it was 890 nM; in test [27], 1440 nM; in the test on NCI-N87, 1530 nM; in test [28] it was 1580 nM.

Values taken from ChEMBL document CHEMBL5512632, “Unlocking the potential of 1,4-naphthoquinones: A comprehensive review of their anticancer properties” (Eur J Med Chem, 2024).
